Source: patent US20040024024A1, “Aromatic sulfone hydroxamates and their use as protease inhibitors” (priority 2001, published 2004)

Experiments:
Assay in all cases: In vitro MMP inhibition, IC50 determination (fluorogenic substrate I)
Format in all cases: biochemical
Human recombinant MMP-2 = biological target: T1, Human recombinant MMP-2 (Homo sapiens, UniProt P08253)
T1 construct: made in house; host or cells: MMP-2-transfected p2AHT2 cells
T1 sequence (P08253 110-660): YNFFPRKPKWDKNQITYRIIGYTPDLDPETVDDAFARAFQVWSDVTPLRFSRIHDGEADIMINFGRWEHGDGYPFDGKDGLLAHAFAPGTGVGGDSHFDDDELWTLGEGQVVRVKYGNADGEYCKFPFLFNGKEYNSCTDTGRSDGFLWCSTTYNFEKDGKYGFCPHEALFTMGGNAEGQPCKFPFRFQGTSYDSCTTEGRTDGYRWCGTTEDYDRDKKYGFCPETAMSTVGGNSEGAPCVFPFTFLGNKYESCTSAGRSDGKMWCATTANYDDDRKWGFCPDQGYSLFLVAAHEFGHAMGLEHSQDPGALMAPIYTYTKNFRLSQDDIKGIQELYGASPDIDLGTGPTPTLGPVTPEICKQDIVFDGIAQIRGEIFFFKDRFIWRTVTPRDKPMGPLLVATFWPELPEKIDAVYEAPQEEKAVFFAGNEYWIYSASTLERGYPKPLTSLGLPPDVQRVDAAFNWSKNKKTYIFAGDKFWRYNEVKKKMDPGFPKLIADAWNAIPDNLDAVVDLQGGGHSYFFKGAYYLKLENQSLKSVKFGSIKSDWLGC
Summary of the method: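 APMA- or trypsin-activated recombinant MMP-2 was incubated at room temperature with serial inhibitor dilutions in Tris buffer pH 7.5 (100 mM NaCl, 10 mM CaCl2, 0.05% Brij), with DMSO from 1% stocks, and 4 μM substrate I. Cleavage was read by fluorescence at 328/415 nm; IC50 was taken from the loss of fluorescence versus inhibitor concentration.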

Human recombinant MMP-9 = biological target: T2, Human recombinant MMP-9 (Homo sapiens, UniProt P14780)
T2 construct: made in house; host or cells: MMP-9-transfected HT1080 cells (spent media)
T2 sequence (P14780 107-707 limits assumed): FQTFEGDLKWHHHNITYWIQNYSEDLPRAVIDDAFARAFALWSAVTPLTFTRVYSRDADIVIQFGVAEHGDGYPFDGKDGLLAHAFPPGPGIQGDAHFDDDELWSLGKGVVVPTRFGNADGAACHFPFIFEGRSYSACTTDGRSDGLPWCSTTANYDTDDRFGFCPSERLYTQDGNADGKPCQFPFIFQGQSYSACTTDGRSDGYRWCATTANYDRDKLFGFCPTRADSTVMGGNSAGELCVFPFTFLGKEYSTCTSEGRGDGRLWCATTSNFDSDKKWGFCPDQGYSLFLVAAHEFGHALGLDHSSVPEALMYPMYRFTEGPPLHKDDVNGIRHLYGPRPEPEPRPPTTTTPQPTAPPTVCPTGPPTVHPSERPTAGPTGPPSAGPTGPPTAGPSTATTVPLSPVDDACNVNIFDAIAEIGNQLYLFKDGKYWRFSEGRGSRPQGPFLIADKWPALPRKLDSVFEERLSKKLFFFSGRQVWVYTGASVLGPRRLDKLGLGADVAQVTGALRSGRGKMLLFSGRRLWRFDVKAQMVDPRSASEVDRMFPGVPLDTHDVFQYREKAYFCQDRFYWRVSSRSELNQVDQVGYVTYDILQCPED
Summary of the method: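 MMP-9 proenzyme purified from transfected HT1080 cell media, activated with APMA or trypsin. Compound dilutions in pH 7.5 Tris/NaCl/CaCl2 buffer with 0.05% polyoxyethylene 23 lauryl ether, incubated at room temperature with 4 μM MCA/Dpa substrate I. IC50 from fluorescence loss (ex 328, em 415 nm) versus inhibitor concentration.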

Human recombinant MMP-14 = biological target: T3, Human recombinant MMP-14 (Homo sapiens, UniProt P50281)
T3 construct: The catalytic domain enzyme was expressed in E. coli inclusion bodies, solubilized in urea; made in house
Summary of the method: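 Catalytic-domain MMP-14, expressed in E. coli and refolded, activated with APMA or trypsin; compounds incubated at room temperature with 4 μM fluorogenic substrate I (MCA-PLGL-Dpa-AR-NH2) in Tris/NaCl/CaCl2 buffer, pH 7.5. Fluorescence at ex 328/em 415 nm; IC50 from loss of fluorescence versus inhibitor concentration.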

Human recombinant MMP-1 = biological target: T4, Human recombinant MMP-1 (Homo sapiens, UniProt P03956)
T4 construct: made in house; host or cells: MMP-1-transfected HT-1080 cells (spent media)
T4 sequence (P03956 100-469): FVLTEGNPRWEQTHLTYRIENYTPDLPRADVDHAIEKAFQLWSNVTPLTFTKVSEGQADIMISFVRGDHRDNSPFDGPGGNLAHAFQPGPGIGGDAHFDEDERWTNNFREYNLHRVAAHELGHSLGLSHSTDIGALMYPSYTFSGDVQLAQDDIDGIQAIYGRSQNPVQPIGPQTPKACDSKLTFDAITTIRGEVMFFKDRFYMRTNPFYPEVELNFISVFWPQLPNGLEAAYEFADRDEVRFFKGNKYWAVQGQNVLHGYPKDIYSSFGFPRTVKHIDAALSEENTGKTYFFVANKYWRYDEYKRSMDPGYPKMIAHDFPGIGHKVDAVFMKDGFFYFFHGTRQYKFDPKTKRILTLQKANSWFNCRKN
Summary of the method: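 APMA- or trypsin-activated enzyme, purified from spent media of transfected HT-1080 cells, incubated at room temperature with 4 μM MCA-Pro-Leu-Gly-Leu-Dpa-Ala-Arg-NH2 and graded inhibitor in Tris buffer pH 7.5 (10 mM CaCl2, 0.05% Brij). Cleavage read by fluorescence (ex 328/em 415 nm); IC50 from fluorescence reduction versus inhibitor concentration.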

Human recombinant MMP-13 = biological target: T5, Human recombinant MMP-13 (Homo sapiens, UniProt P45452)
T5 construct: made in house; host or cells: baculovirus / insect cells
Summary of the method: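 Fluorescence at 415 nm (excitation 328 nm) reports Gly-Leu cleavage of 4 μM quenched methoxycoumarin peptide substrate I. Human recombinant MMP-13, activated by trypsin or APMA, was incubated at room temperature with varied inhibitor concentrations in pH 7.5 Tris/NaCl/CaCl2 buffer; IC50 derived from reduced fluorescence.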

[1] = value outside parentheses (Ki in parenthesis)
[2] = substrate (I) 4 μM, room temperature, values not in parenthesis

| Compound | IC50 (Human recombinant MMP-2; [1]) [nM] | IC50 (Human recombinant MMP-9; [1]) [nM] | IC50 (Human recombinant MMP-14; [1]) [nM] | IC50 (Human recombinant MMP-1; [1]) [nM] | IC50 (Human recombinant MMP-13; [1]) [nM] | other results |
| --- | --- | --- | --- | --- | --- | --- |
| O=C(CCCOc1ccc(S(=O)(=O)C2(C(=O)NO)CCOCC2)cc1)c1cccc(-c2ccccc2)c1 [Example 353] | 25.1 | 1150 | > 10000 | > 10000 | 1.8 |  |
| Cc1ccccc1N1CC(=O)N(CCCOc2ccc(S(=O)(=O)C3(C(=O)NO)CCOCC3)cc2)C1=O [Example 226] |  |  |  |  |  | IC50 (Human recombinant MMP-2; value outside parenthesis): 222 nM; IC50 (Human recombinant MMP-9; value outside parenthesis): 2140 nM; IC50 (Human recombinant MMP-14; value outside parenthesis): > 10000 nM; IC50 (Human recombinant MMP-1; value outside parenthesis): > 10000 nM; IC50 (Human recombinant MMP-13; value outside parenthesis): 4.3 nM |
| O=C(CCCOc1ccc(S(=O)(=O)C2(C(=O)NO)CCOCC2)cc1)Cc1ccc(Cl)cc1 [Example 302] | 0.2 | 2.9 | 94.9 | 2730 | 0.1 |  |
| Cc1ccc(/C(C#N)=C/CCCOc2ccc(S(=O)(=O)C3(C(=O)NO)CCN(C4CC4)CC3)cc2)cc1C [Example 201] |  |  |  |  |  | IC50 (Human recombinant MMP-2; value outside parenthesis): 128 nM; IC50 (Human recombinant MMP-9; value outside parenthesis): 4510 nM; IC50 (Human recombinant MMP-14; value outside parenthesis): > 10000 nM; IC50 (Human recombinant MMP-1; value outside parenthesis): > 10000 nM; IC50 (Human recombinant MMP-13; value outside parenthesis): 0.7 nM |
| COc1cc(COCCCOc2ccc(S(=O)(=O)C3(C(=O)NO)CCOCC3)cc2)cc(OC)c1 [Example 453] | 13 | 800 | 5000 | > 10000 | 3 |  |
| Cc1ccc(C(=O)NCCCOc2ccc(S(=O)(=O)C3(C(=O)NO)CCOCC3)cc2)c(C)c1 [Example 373] | 940 | 3940 | > 10000 | > 10000 | 7 |  |
| O=C(CCOc1ccc(S(=O)(=O)C2(C(=O)NO)CCOCC2)cc1)c1ccccc1 [Example 495] |  |  |  |  |  | IC50 (Human recombinant MMP-2; value outside parentheses): 1.9 nM; IC50 (Human recombinant MMP-9; value outside parentheses): 25.8 nM; IC50 (Human recombinant MMP-14; value outside parentheses): 505 nM; IC50 (Human recombinant MMP-1; value outside parentheses): 815 nM; IC50 (Human recombinant MMP-13; value outside parentheses): 1.7 nM |
| CCOc1ccc(-c2noc(CCCOc3ccc(S(=O)(=O)C4(C(=O)NO)CCN(C5CC5)CC4)cc3)n2)cc1 [Example 268] |  |  |  |  |  | IC50 (Human recombinant MMP-2; value outside parenthesis): 126 nM; IC50 (Human recombinant MMP-9; value outside parenthesis): 674 nM; IC50 (Human recombinant MMP-14; value outside parenthesis): > 10000 nM; IC50 (Human recombinant MMP-1; value outside parenthesis): > 10000 nM; IC50 (Human recombinant MMP-13; value outside parenthesis): 2.5 nM |
| CC(=O)Nc1cccc(OCCOc2ccc(S(=O)(=O)C3(C(=O)NO)CCOCC3)cc2)c1 [Example 670] |  |  |  |  |  | IC50 (Human recombinant MMP-2; value outside parentheses): 163 nM; IC50 (Human recombinant MMP-9; value outside parentheses): 183 nM; IC50 (Human recombinant MMP-14; value outside parentheses): 2370 nM; IC50 (Human recombinant MMP-1; value outside parentheses): > 10000 nM; IC50 (Human recombinant MMP-13; value outside parentheses): 14 nM |
| Cc1cc(-c2cccc(CCOc3ccc(S(=O)(=O)C4(C(=O)NO)CCOCC4)cc3)c2)ccc1F [Example 120] |  |  |  |  |  | IC50 (Human recombinant MMP-2; value outside parenthesis): 1170 nM; IC50 (Human recombinant MMP-9; value outside parenthesis): > 10000 nM; IC50 (Human recombinant MMP-14; value outside parenthesis): > 10000 nM; IC50 (Human recombinant MMP-1; value outside parenthesis): > 10000 nM; IC50 (Human recombinant MMP-13; value outside parenthesis): 5.8 nM |
| O=C1CN(c2cccc(OC(F)(F)F)c2)C(=O)N1CCCOc1ccc(S(=O)(=O)C2(C(=O)NO)CCOCC2)cc1 [Example 232] |  |  |  |  |  | IC50 (Human recombinant MMP-2; value outside parenthesis): 74.2 nM; IC50 (Human recombinant MMP-9; value outside parenthesis): 878 nM; IC50 (Human recombinant MMP-14; value outside parenthesis): > 10000 nM; IC50 (Human recombinant MMP-1; value outside parenthesis): > 10000 nM; IC50 (Human recombinant MMP-13; value outside parenthesis): 5.6 nM |
| O=C(NO)C1(S(=O)(=O)c2ccc(OCCCOc3ccc4ccccc4c3)cc2)CCOCC1 [Example 448] | 9 | 116 | 832 | 3080 | 2.7 |  |
| CN(C)C(=O)c1cccc(OCCOc2ccc(S(=O)(=O)C3(C(=O)NO)CCOCC3)cc2)c1 [Example 666] |  |  |  |  |  | IC50 (Human recombinant MMP-2; value outside parentheses): 1.52 nM; IC50 (Human recombinant MMP-9; value outside parentheses): 4450 nM; IC50 (Human recombinant MMP-14; value outside parentheses): > 10000 nM; IC50 (Human recombinant MMP-1; value outside parentheses): > 10000 nM; IC50 (Human recombinant MMP-13; value outside parentheses): 17.2 nM |
| COC(=O)c1ccc(C(=O)NCCCOc2ccc(S(=O)(=O)C3(C(=O)NO)CCOCC3)cc2)cc1 [Example 368] | 150 | 9000 | > 10000 | > 10000 | 0.8 |  |
| O=C(NO)C1(S(=O)(=O)c2ccc(OCCCNc3nc4ccccc4o3)cc2)CCOCC1 [Example 321] | 1700 | 626 | > 10000 | > 10000 | 3.7 |  |
| COc1ccc(C(=O)N2CCC(COc3ccc(S(=O)(=O)C4(C(=O)NO)CCOCC4)cc3)CC2)cc1 [Example 420] | 67 | > 10000 | > 10000 | > 10000 | 4 |  |
| COc1ccc(-c2nnc(CCCCOc3ccc(S(=O)(=O)C4(C(=O)NO)CCOCC4)cc3)o2)cc1 [Example 346] | 2.6 | 2010 | > 10000 | > 10000 | 0.9 |  |
| COc1ccc(CCCOc2ccc(S(=O)(=O)C3(C(=O)NO)CCOCC3)cc2)cc1OC [Example 466] | 110 | 45 | > 10000 | > 10000 | 15 |  |
| CN(C)c1ccc(NC(=O)CCCOc2ccc(S(=O)(=O)C3(C(=O)NO)CCOCC3)cc2)cc1 [Example 357] | 10.2 | 952 | > 10000 | > 10000 | 1.7 |  |
| CC(CCc1ccccc1)Oc1ccc(S(=O)(=O)C2(C(=O)NO)CCOCC2)cc1 (centres unmarked) [Example 467] | 940 | 450 | > 10000 | > 10000 | 120 |  |
| O=C(NO)C1(S(=O)(=O)c2ccc(OCCCSc3nc4ccccc4o3)cc2)CCOCC1 [Example 33, 4-[[4-[3-(2-benzoxazolylthio)propoxy]phenyl]sulfonyl]tetrahydro-N-N-hydroxy-2H-pyran-4-carboxamide] |  |  |  |  |  | IC50 (Human recombinant MMP-2; [2]): 16 nM; IC50 (Human recombinant MMP-9; [2]): 7.9 nM; IC50 (Human recombinant MMP-14; [2]): 4940 nM; IC50 (Human recombinant MMP-1; [2]): > 10000 nM; IC50 (Human recombinant MMP-13; [2]): 1 nM |
| Cc1ccc(-c2noc(CCCOc3ccc(S(=O)(=O)C4(C(=O)NO)CCOCC4)cc3)n2)c(F)c1 [Example 218] |  |  |  |  |  | IC50 (Human recombinant MMP-2; value outside parenthesis): 40.4 nM; IC50 (Human recombinant MMP-9; value outside parenthesis): 2970 nM; IC50 (Human recombinant MMP-14; value outside parenthesis): > 10000 nM; IC50 (Human recombinant MMP-1; value outside parenthesis): > 10000 nM; IC50 (Human recombinant MMP-13; value outside parenthesis): 1.4 nM |
